{"source": "patent US20250376483A1", "about": "“PRODRUGS OF PAN-KRAS INHIBITORS” (Mirati Therapeutics, Inc., priority 2022, published 2025)", "key": {"[1]": {"test": "Whole Blood Stability Assay (mouse whole blood)", "assay_type": "in vitro ADME", "conditions": "CD-1 mouse blood, EDTA-K2, final conc. 2 μM, 37° C., 0-120 min; for half-life at 2 μM: male, fresh whole blood, read-out: Mouse Whole Blood Stability t1/2", "in_short": "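Compound at 2 μM final was incubated at 37 °C in fresh EDTA-K2 blood from male CD-1 mice. Samples at 0, 10, 30, 60 and 120 min were protein-precipitated with acetonitrile and analysed by LC-MS/MS. % remaining was derived from analyte/internal-standard peak area ratios.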"}, "[2]": {"test": "Plasma Stability Assay (human plasma)", "assay_type": "in vitro ADME", "conditions": "both sexes; pooled human plasma, heparin, final conc. 2 μM, 37° C., 0-120 min; read-out: Human Plasma Stability t1/2", "in_short": "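Compound at 2 μM final in pooled heparinised plasma (3 male, 3 female), incubated at 37° C with sampling at 0, 10, 30, 60 and 120 min. Acetonitrile stop, LC-MS/MS; % remaining from analyte/internal-standard peak area ratio relative to T0.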"}}}
{"smiles": "CCc1c(F)ccc2cc(OC(C)=O)cc(N3CCc4c(nc(OC[C@@]56CCCN5C[C@H](F)C6)nc4N4CCC[C@]5(C4)NC(=O)NC5=O)C3)c12", "note": "[Example 27, 4-(4-((R)-2,4-dioxo-1,3,7-triazaspiro[4.5]decan-7-yl)-2-(((2R,7aS)-2-fluorotetrahydro-1H-pyrrolizin-7a(5H)-yl)methoxy)-5,8-dihydropyrido[3,4-d]pyrimidin-7(6H)-yl)-5-ethyl-6-fluoronaphthalen-2-yl acetate]", "values": [{"measurement": "half-life at 2 μM", "setting": "[1]", "value": 2, "unit": "min"}, {"measurement": "half-life at 2 μM", "setting": "[2]", "value": 12, "unit": "min"}]}
{"smiles": "CCOC(=O)Oc1cc(N2CCc3c(nc(OC[C@@]45CCCN4C[C@H](F)C5)nc3N3CCC[C@]4(C3)NC(=O)NC4=O)C2)c2c(CC)c(F)ccc2c1", "note": "[Example 36, 4-(4-((R)-2,4-dioxo-1,3,7-triazaspiro[4.5]decan-7-yl)-2-(((2R,7aS)-2-fluorotetrahydro-1H-pyrrolizin-7a(5H)-yl)methoxy)-5,8-dihydropyrido[3,4-d]pyrimidin-7(6H)-yl)-5-ethyl-6-fluoronaphthalen-2-yl ethyl carbonate]", "values": [{"measurement": "half-life at 2 μM", "setting": "[1]", "value": 3, "unit": "min"}, {"measurement": "half-life at 2 μM", "setting": "[2]", "value": 33, "unit": "min"}]}
{"smiles": "CCc1c(F)ccc2cc(OC(=O)C(C)(C)C)cc(-c3ncc4c(N5C[C@@H]6C[C@H](C5)[C@H](O)C6)nc(OC[C@@]56CCCN5C[C@H](F)C6)nc4c3F)c12", "note": "[Example 5, 5-ethyl-6-fluoro-4-(8-fluoro-2-(((2R,7aS)-2-fluorotetrahydro-1H-pyrrolizin-7a(5H)-yl)methoxy)-4-((1R,5R,6R)-6-hydroxy-3-azabicyclo[3.2.1]octan-3-yl)pyrido[4,3-d]pyrimidin-7-yl)naphthalen-2-yl pivalate]", "values": [{"measurement": "half-life at 2 μM", "setting": "[1]", "value": 2, "unit": "min"}, {"measurement": "half-life at 2 μM", "setting": "[2]", "value": 67, "unit": "min"}]}
{"smiles": "CCc1c(F)ccc2cc(OC(=O)C3(C)COC3)cc(N3CCc4c(nc(OC[C@@]56CCCN5C[C@H](F)C6)nc4N4CCC[C@]5(C4)NC(=O)NC5=O)C3)c12", "note": "[Example 62, 4-(4-((R)-2,4-dioxo-1,3,7-triazaspiro[4.5]decan-7-yl)-2-(((2R,7aS)-2-fluorotetrahydro-1H-pyrrolizin-7a(5H)-yl)methoxy)-5,8-dihydropyrido[3,4-d]pyrimidin-7(6H)-yl)-5-ethyl-6-fluoronaphthalen-2-yl 3-methyloxetane-3-carboxylate]", "values": [{"measurement": "Mouse Whole Blood Stability t1/2", "setting": "[1]", "value": 1, "unit": "min"}, {"measurement": "half-life at 2 μM", "setting": "[2]", "value": 38, "unit": "min"}]}
{"smiles": "CCc1c(F)ccc2cc(OC(=O)N(CC)CC)cc(N3CCc4c(nc(OC[C@@]56CCCN5C[C@H](F)C6)nc4N4CCC[C@]5(C4)NC(=O)NC5=O)C3)c12", "note": "[Example 45, 4-(4-((R)-2,4-dioxo-1,3,7-triazaspiro[4.5]decan-7-yl)-2-(((2R,7aS)-2-fluorotetrahydro-1H-pyrrolizin-7a(5H)-yl)methoxy)-5,8-dihydropyrido[3,4-d]pyrimidin-7(6H)-yl)-5-ethyl-6-fluoronaphthalen-2-yl diethylcarbamate]", "values": [{"measurement": "half-life at 2 μM", "setting": "[1]", "value": "> 289", "unit": "min"}, {"measurement": "half-life at 2 μM", "setting": "[2]", "value": "> 289", "unit": "min"}]}
{"smiles": "CCCCCCCC(=O)Oc1cc(N2CCc3c(nc(OC[C@@]45CCCN4C[C@H](F)C5)nc3N3CCC[C@]4(C3)NC(=O)NC4=O)C2)c2c(CC)c(F)ccc2c1", "note": "[Example 50, 4-(4-((R)-2,4-dioxo-1,3,7-triazaspiro[4.5]decan-7-yl)-2-(((2R,7aS)-2-fluorotetrahydro-1H-pyrrolizin-7a(5H)-yl)methoxy)-5,8-dihydropyrido[3,4-d]pyrimidin-7(6H)-yl)-5-ethyl-6-fluoronaphthalen-2-yl octanoate]", "values": [{"measurement": "half-life at 2 μM", "setting": "[1]", "value": 13, "unit": "min"}, {"measurement": "half-life at 2 μM", "setting": "[2]", "value": 235, "unit": "min"}]}
{"smiles": "CCc1c(F)ccc2cc(OC(=O)OC)cc(-c3ncc4c(N5C[C@@H]6C[C@H](C5)[C@H](O)C6)nc(OC[C@@]56CCCN5C[C@H](F)C6)nc4c3F)c12", "note": "[Example 9, 5-ethyl-6-fluoro-4-(8-fluoro-2-(((2R,7aS)-2-fluorotetrahydro-1H-pyrrolizin-7a(5H)-yl)methoxy)-4-((1R,5R,6R)-6-hydroxy-3-azabicyclo[3.2.1]octan-3-yl)pyrido[4,3-d]pyrimidin-7-yl)naphthalen-2-yl methyl carbonate]", "values": [{"measurement": "Mouse Whole Blood Stability t1/2", "setting": "[1]", "value": 1, "unit": "min"}, {"measurement": "half-life at 2 μM", "setting": "[2]", "value": 9, "unit": "min"}]}
{"smiles": "CCCCCCCC(=O)Oc1cc(-c2ncc3c(N4C[C@@H]5C[C@H](C4)[C@H](O)C5)nc(OC[C@@]45CCCN4C[C@H](F)C5)nc3c2F)c2c(CC)c(F)ccc2c1", "note": "[Example 24, 5-ethyl-6-fluoro-4-(8-fluoro-2-(((2R,7aS)-2-fluorotetrahydro-1H-pyrrolizin-7a(5H)-yl)methoxy)-4-((1R,5R,6R)-6-hydroxy-3-azabicyclo[3.2.1]octan-3-yl)pyrido[4,3-d]pyrimidin-7-yl)naphthalen-2-yl octanoate]", "values": [{"measurement": "Mouse Whole Blood Stability t1/2", "setting": "[1]", "value": 1, "unit": "min"}, {"measurement": "half-life at 2 μM", "setting": "[2]", "value": 65, "unit": "min"}]}
{"smiles": "CCc1c(F)ccc2cc(OC(=O)OC(C)C)cc(N3CCc4c(nc(OC[C@@]56CCCN5C[C@H](F)C6)nc4N4CCC[C@]5(C4)NC(=O)NC5=O)C3)c12", "note": "[Example 40, 4-(4-((R)-2,4-dioxo-1,3,7-triazaspiro[4.5]decan-7-yl)-2-(((2R,7aS)-2-fluorotetrahydro-1H-pyrrolizin-7a(5H)-yl)methoxy)-5,8-dihydropyrido[3,4-d]pyrimidin-7(6H)-yl)-5-ethyl-6-fluoronaphthalen-2-yl isopropyl carbonate]", "values": [{"measurement": "half-life at 2 μM", "setting": "[1]", "value": 2, "unit": "min"}, {"measurement": "half-life at 2 μM", "setting": "[2]", "value": 95, "unit": "min"}]}
{"smiles": "CCc1c(F)ccc2cc(OC(=O)OC)cc(N3CCc4c(nc(OC[C@@]56CCCN5C[C@H](F)C6)nc4N4CCC[C@]5(C4)NC(=O)NC5=O)C3)c12", "note": "[Example 30, 4-(4-((R)-2,4-dioxo-1,3,7-triazaspiro[4.5]decan-7-yl)-2-(((2R,7aS)-2-fluorotetrahydro-1H-pyrrolizin-7a(5H)-yl)methoxy)-5,8-dihydropyrido[3,4-d]pyrimidin-7(6H)-yl)-5-ethyl-6-fluoronaphthalen-2-yl methyl carbonate]", "values": [{"measurement": "Mouse Whole Blood Stability t1/2", "setting": "[1]", "value": 1, "unit": "min"}, {"measurement": "half-life at 2 μM", "setting": "[2]", "value": 27, "unit": "min"}]}
{"smiles": "CCOC(=O)Oc1cc(-c2ncc3c(N4C[C@@H]5C[C@H](C4)[C@H](O)C5)nc(OC[C@@]45CCCN4C[C@H](F)C5)nc3c2F)c2c(CC)c(F)ccc2c1", "note": "[Example 12, ethyl (5-ethyl-6-fluoro-4-(8-fluoro-2-(((2R,7aS)-2-fluorotetrahydro-1H-pyrrolizin-7a(5H)-yl)methoxy)-4-((1R,5R,6R)-6-hydroxy-3-azabicyclo[3.2.1]octan-3-yl)pyrido[4,3-d]pyrimidin-7-yl)naphthalen-2-yl) carbonate]", "values": [{"measurement": "half-life at 2 μM", "setting": "[1]", "value": "< 5", "unit": "min"}, {"measurement": "half-life at 2 μM", "setting": "[2]", "value": 26, "unit": "min"}]}
{"smiles": "CCCCCCCCCC(=O)Oc1cc(N2CCc3c(nc(OC[C@@]45CCCN4C[C@H](F)C5)nc3N3CCC[C@]4(C3)NC(=O)NC4=O)C2)c2c(CC)c(F)ccc2c1", "note": "[Example 51, 4-(4-((R)-2,4-dioxo-1,3,7-triazaspiro[4.5]decan-7-yl)-2-(((2R,7aS)-2-fluorotetrahydro-1H-pyrrolizin-7a(5H)-yl)methoxy)-5,8-dihydropyrido[3,4-d]pyrimidin-7(6H)-yl)-5-ethyl-6-fluoronaphthalen-2-yl decanoate]", "values": [{"measurement": "half-life at 2 μM", "setting": "[1]", "value": 4, "unit": "min"}, {"measurement": "half-life at 2 μM", "setting": "[2]", "value": 235, "unit": "min"}]}
{"smiles": "CCc1c(F)ccc2cc(OC(=O)N3CCOCC3)cc(N3CCc4c(nc(OC[C@@]56CCCN5C[C@H](F)C6)nc4N4CCC[C@]5(C4)NC(=O)NC5=O)C3)c12", "note": "[Example 60, 4-(4-((R)-2,4-dioxo-1,3,7-triazaspiro[4.5]decan-7-yl)-2-(((2R,7aS)-2-fluorotetrahydro-1H-pyrrolizin-7a(5H)-yl)methoxy)-5,8-dihydropyrido[3,4-d]pyrimidin-7(6H)-yl)-5-ethyl-6-fluoronaphthalen-2-yl morpholine-4-carboxylate]", "values": [{"measurement": "half-life at 2 μM", "setting": "[1]", "value": 79, "unit": "min"}, {"measurement": "half-life at 2 μM", "setting": "[2]", "value": "> 289", "unit": "min"}]}
{"smiles": "CCc1c(F)ccc2cc(OC(=O)N3CCC[C@@H](C)C3)cc(N3CCc4c(nc(OC[C@@]56CCCN5C[C@H](F)C6)nc4N4CCC[C@]5(C4)NC(=O)NC5=O)C3)c12", "note": "[Example 58, 4-(4-((R)-2,4-dioxo-1,3,7-triazaspiro[4.5]decan-7-yl)-2-(((2R,7aS)-2-fluorotetrahydro-1H-pyrrolizin-7a(5H)-yl)methoxy)-5,8-dihydropyrido[3,4-d]pyrimidin-7(6H)-yl)-5-ethyl-6-fluoronaphthalen-2-yl (R)-3-methylpiperidine-1-carboxylate]", "values": [{"measurement": "half-life at 2 μM", "setting": "[1]", "value": "> 289", "unit": "min"}, {"measurement": "half-life at 2 μM", "setting": "[2]", "value": "> 289", "unit": "min"}]}
{"smiles": "CCCCCCCCCC(=O)Oc1cc(-c2ncc3c(N4C[C@@H]5C[C@H](C4)[C@H](O)C5)nc(OC[C@@]45CCCN4C[C@H](F)C5)nc3c2F)c2c(CC)c(F)ccc2c1", "note": "[Example 25, 5-ethyl-6-fluoro-4-(8-fluoro-2-(((2R,7aS)-2-fluorotetrahydro-1H-pyrrolizin-7a(5H)-yl)methoxy)-4-((1R,5R,6R)-6-hydroxy-3-azabicyclo[3.2.1]octan-3-yl)pyrido[4,3-d]pyrimidin-7-yl)naphthalen-2-yl decanoate]", "values": [{"measurement": "Mouse Whole Blood Stability t1/2", "setting": "[1]", "value": 1, "unit": "min"}, {"measurement": "half-life at 2 μM", "setting": "[2]", "value": 77, "unit": "min"}]}
{"smiles": "CCc1c(F)ccc2cc(OC(=O)N3CCC3)cc(N3CCc4c(nc(OC[C@@]56CCCN5C[C@H](F)C6)nc4N4CCC[C@]5(C4)NC(=O)NC5=O)C3)c12", "note": "[Example 37, 4-(4-((R)-2,4-dioxo-1,3,7-triazaspiro[4.5]decan-7-yl)-2-(((2R,7aS)-2-fluorotetrahydro-1H-pyrrolizin-7a(5H)-yl)methoxy)-5,8-dihydropyrido[3,4-d]pyrimidin-7(6H)-yl)-5-ethyl-6-fluoronaphthalen-2-yl azetidine-1-carboxylate]", "values": [{"measurement": "half-life at 2 μM", "setting": "[1]", "value": 189, "unit": "min"}, {"measurement": "half-life at 2 μM", "setting": "[2]", "value": "> 289", "unit": "min"}]}
{"smiles": "CCc1c(F)ccc2cc(OC(=O)N(C)C)cc(-c3ncc4c(N5C[C@@H]6C[C@H](C5)[C@H](O)C6)nc(OC[C@@]56CCCN5C[C@H](F)C6)nc4c3F)c12", "note": "[Example 6, 5-ethyl-6-fluoro-4-(8-fluoro-2-(((2R,7aS)-2-fluorotetrahydro-1H-pyrrolizin-7a(5H)-yl)methoxy)-4-((1R,5R,6R)-6-hydroxy-3-azabicyclo[3.2.1]octan-3-yl)pyrido[4,3-d]pyrimidin-7-yl)naphthalen-2-yl dimethylcarbamate]", "values": [{"measurement": "half-life at 2 μM", "setting": "[1]", "value": "> 289", "unit": "min"}, {"measurement": "half-life at 2 μM", "setting": "[2]", "value": "> 289", "unit": "min"}]}
